Measurements: patent US12398154B2, “Azaquinazoline pan-KRas inhibitors” (Mirati Therapeutics, Inc., priority 2020, dated 2025)

Columns and labels:
[1] = biological target: T1, KRas G13D (Homo sapiens, UniProt P01116, G13D); assay: KRas binding assay (TR-FRET displacement);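 also: One-hour room temperature incubation before TR-FRET reading, IC50 from a four-parameter curve fit to percent-of-control data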
T1 construct: Biotinylated KRas (corresponding to amino acids 1-169, produced at Accelegan Inc.); biotin (biotinylated); purchased Accelegan Inc
T1 sequence (P01116 1-169 isoform P01116-2 G13D): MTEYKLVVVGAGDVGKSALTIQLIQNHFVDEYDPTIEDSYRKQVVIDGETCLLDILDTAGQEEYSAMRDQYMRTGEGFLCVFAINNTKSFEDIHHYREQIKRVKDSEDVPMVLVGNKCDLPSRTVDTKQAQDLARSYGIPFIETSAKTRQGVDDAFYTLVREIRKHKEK
Protocol: (§1) The ability of a compound to bind to KRas was measured using a TR-FRET displacement assay. […] After a 60-minute incubation at room temperature, the reaction was measured using a BMG LABTECH CLARIO star Plus via TR-FRET. […] The POC values were fit to a 4-parameter IC50 equation and the IC50 value reported.

[2] = biological target: T2, KRas Q61H (Homo sapiens, UniProt P01116, Q61H); assay: KRas binding assay (TR-FRET displacement);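 also: TR-FRET signal read after one hour at room temperature, IC50 derived by four-parameter fitting of percent-of-control values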
T2 construct: Biotinylated KRas (corresponding to amino acids 1-169, produced at Accelegan Inc.); biotin (biotinylated); purchased Accelegan Inc
T2 sequence (P01116 1-169 isoform P01116-2 Q61H): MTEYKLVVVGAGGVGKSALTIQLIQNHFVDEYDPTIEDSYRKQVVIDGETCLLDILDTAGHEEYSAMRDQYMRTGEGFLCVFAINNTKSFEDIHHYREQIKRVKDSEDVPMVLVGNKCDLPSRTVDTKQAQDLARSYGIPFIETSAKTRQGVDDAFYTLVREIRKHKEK
Protocol: as §1

[3] = biological target: KRas G12D (Homo sapiens, UniProt P01116, G12D); assay: biochemical;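 also: TR-FRET displacement binding assay on KRas, read after a one-hour incubation at room temperature, IC50 fitted from percent-of-control values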
Sequence of KRas G12D (P01116 1-169 isoform P01116-2 G12D): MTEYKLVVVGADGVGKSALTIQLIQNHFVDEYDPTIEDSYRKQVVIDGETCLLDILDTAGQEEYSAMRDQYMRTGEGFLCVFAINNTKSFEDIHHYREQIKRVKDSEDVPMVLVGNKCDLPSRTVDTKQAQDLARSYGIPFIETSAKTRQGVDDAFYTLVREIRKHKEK
Protocol: as §1

[4] = biological target: KRas G12V (Homo sapiens, UniProt P01116, G12V); assay: biochemical;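 also: KRas binding measured by TR-FRET displacement at room temperature, IC50 fitted from percent of control values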
Sequence of KRas G12V (P01116 1-169 isoform P01116-2 G12V): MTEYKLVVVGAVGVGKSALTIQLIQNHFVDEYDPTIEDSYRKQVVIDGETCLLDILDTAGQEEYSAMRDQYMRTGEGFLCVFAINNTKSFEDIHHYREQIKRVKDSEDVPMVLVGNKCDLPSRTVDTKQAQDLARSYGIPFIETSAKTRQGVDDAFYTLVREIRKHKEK
Protocol: as §1

[5] = biological target: KRas G12R (Homo sapiens, UniProt P01116, G12R); assay: biochemical;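 also: TR-FRET displacement assay of compound binding to KRas, read after one hour at room temperature, potency from a four-parameter fit of percent-of-control values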
Sequence of KRas G12R (P01116 1-169 isoform P01116-2 G12R): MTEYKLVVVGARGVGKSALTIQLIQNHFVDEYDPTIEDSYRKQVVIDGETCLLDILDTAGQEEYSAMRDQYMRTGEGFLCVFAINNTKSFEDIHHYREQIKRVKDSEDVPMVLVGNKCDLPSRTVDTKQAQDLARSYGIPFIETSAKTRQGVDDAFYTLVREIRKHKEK
Protocol: as §1

[6] = biological target: KRas G12A (Homo sapiens, UniProt P01116, G12A); assay: biochemical;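 also: binding to KRas measured by TR-FRET displacement after one hour at room temperature, IC50 from a four-parameter fit of percent-of-control values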
Sequence of KRas G12A (P01116 1-169 isoform P01116-2 G12A): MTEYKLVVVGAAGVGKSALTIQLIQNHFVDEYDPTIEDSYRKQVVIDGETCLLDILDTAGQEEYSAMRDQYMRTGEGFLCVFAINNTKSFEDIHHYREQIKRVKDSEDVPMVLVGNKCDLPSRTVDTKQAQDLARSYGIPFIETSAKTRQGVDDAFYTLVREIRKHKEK
Protocol: as §1

[7] = biological target: KRas G12S (Homo sapiens, UniProt P01116, G12S); assay: biochemical;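 also: TR-FRET displacement binding to KRas, read after one hour incubation at room temperature, IC50 from four-parameter fit of percent of control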
Sequence of KRas G12S (P01116 1-169 isoform P01116-2 G12S): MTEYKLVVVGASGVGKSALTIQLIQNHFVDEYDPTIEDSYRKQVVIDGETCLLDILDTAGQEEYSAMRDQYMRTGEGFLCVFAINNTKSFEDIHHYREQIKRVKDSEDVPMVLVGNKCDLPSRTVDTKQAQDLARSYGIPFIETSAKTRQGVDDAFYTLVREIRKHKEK
Protocol: as §1

[8] = biological target: KRas G12C (Homo sapiens, UniProt P01116, G12C); assay: biochemical;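 also: binding to KRas assessed by TR-FRET displacement after one hour incubation at room temperature, potency fitted from percent-of-control values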
Sequence of KRas G12C (P01116 1-169 isoform P01116-2 G12C): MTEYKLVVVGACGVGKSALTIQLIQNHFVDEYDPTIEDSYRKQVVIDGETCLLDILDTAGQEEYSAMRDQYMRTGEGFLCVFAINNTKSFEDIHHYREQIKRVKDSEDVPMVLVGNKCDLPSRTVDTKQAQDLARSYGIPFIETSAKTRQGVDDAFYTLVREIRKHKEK
Protocol: as §1

[9] = biological target: KRas WT (Homo sapiens, UniProt P01116); assay: biochemical;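 also: binding to KRas read as TR-FRET displacement after a one-hour room-temperature incubation, IC50 derived from percent-of-control values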
Sequence of KRas WT (P01116 1-169 isoform P01116-2): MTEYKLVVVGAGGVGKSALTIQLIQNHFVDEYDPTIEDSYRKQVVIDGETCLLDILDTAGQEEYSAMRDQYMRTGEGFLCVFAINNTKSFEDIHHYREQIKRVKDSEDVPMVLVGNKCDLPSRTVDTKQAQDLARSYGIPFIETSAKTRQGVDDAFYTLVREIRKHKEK
Protocol: as §1

Work on O=C1NC2(CCN(c3nc(OCC45CCCN4CCC5)nc4c(F)c(-c5cccc6cccc(F)c56)ncc34)CC2)CO1 [Example 224, 8-(8-fluoro-7-(8-fluoronaphthalen-1-yl)-2-((tetrahydro-1H-pyrrolizin-7a(5H)-yl)methoxy)pyrido[4,3-d]pyrimidin-4-yl)-3-oxa-1,8-diazaspiro[4.5]decan-2-one] yielded an IC50 [1] of 4830 nM, an IC50 [2] of 9670 nM and an IC50 [3] of 64.8 µM. The IC50 [4] was 8.48 µM, the IC50 [5] was 4.02 µM and the IC50 [6] was 8.45 µM. For the same compound, the IC50 [7] was 7.11 µM, the IC50 [8] was 11.7 µM and the IC50 [9] was 6.28 µM.

NC(=O)CCNc1nc(OCC23CCCN2CCC3)nc2c(F)c(-c3cccc4cccc(F)c34)ncc12 [Example 225, 3-((8-fluoro-7-(8-fluoronaphthalen-1-yl)-2-((hexahydro-1H-pyrrolizin-7a-yl)methoxy)pyrido[4,3-d]pyrimidin-4-yl)amino)propanamide] gave an IC50 [1] of 23500 nM, an IC50 [2] of 26100 nM and an IC50 [3] of 21.7 µM. For the same compound, the IC50 [4] was 6.24 µM, the IC50 [5] was 9.39 µM and the IC50 [6] was 14.9 µM. For the same compound, the IC50 [7] was 9.9 µM, the IC50 [8] was 8.12 µM and the IC50 [9] was 16.6 µM.

For O=C1NC(=O)C2CN(c3nc(OCC45CCCN4CCC5)nc4c(F)c(-c5cccc6cccc(F)c56)ncc34)CC12 (stereo not drawn) [Example 228, 5-(8-fluoro-7-(8-fluoronaphthalen-1-yl)-2-((hexahydro-1H-pyrrolizin-7a-yl)methoxy)pyrido[4,3-d]pyrimidin-4-yl)tetrahydropyrrolo[3,4-c]pyrrole-1,3(2H,3aH)-dione], the IC50 [1] was 465 nM, the IC50 [2] was 822 nM and the IC50 [3] was 0.147 µM. For the same compound, the IC50 [4] was 0.148 µM, the IC50 [5] was 0.224 µM and the IC50 [6] was 1.21 µM. The IC50 [7] was 0.202 µM, the IC50 [8] was 1.02 µM and the IC50 [9] was 2.7 µM.

O=c1[nH][nH]cc1CNc1nc(OCC23CCCN2CCC3)nc2c(F)c(-c3cccc4cccc(F)c34)ncc12 [Example 230, 4-(((8-fluoro-7-(8-fluoronaphthalen-1-yl)-2-((hexahydro-1H-pyrrolizin-7a-yl)methoxy)pyrido[4,3-d]pyrimidin-4-yl)amino)methyl)-1H-pyrazol-3(2H)-one] was tested, and the IC50 [1] was 35500 nM, the IC50 [2] was 23300 nM and the IC50 [3] was 38.8 µM. For the same compound, the IC50 [4] was 7.99 µM, the IC50 [5] was 9.85 µM and the IC50 [6] was 11.3 µM. It also gave an IC50 [7] of 19.7 µM, an IC50 [8] of 10.6 µM and an IC50 [9] of 28.4 µM.

With O=c1cc(CNc2nc(OCC34CCCN3CCC4)nc3c(F)c(-c4cccc5cccc(F)c45)ncc23)[nH][nH]1 [Example 231, 5-(((8-fluoro-7-(8-fluoronaphthalen-1-yl)-2-((hexahydro-1H-pyrrolizin-7a-yl)methoxy)pyrido[4,3-d]pyrimidin-4-yl)amino)methyl)-1H-pyrazol-3(2H)-one] the IC50 [1] was 61500 nM, the IC50 [2] was 62300 nM and the IC50 [3] was 97.9 µM. It also gave an IC50 [4] of 24.6 µM, an IC50 [5] of 8.68 µM and an IC50 [6] of 52.1 µM. For the same compound, the IC50 [7] was 31.6 µM, the IC50 [8] was 29.6 µM and the IC50 [9] was 49.4 µM.

Compound Fc1c(-c2cccc3cccc(F)c23)ncc2c(N3CCCC4(CCC4)C3)nc(OCC34CCCN3CCC4)nc12 [Example 232, 8-fluoro-7-(8-fluoronaphthalen-1-yl)-2-((hexahydro-1H-pyrrolizin-7a-yl)methoxy)-4-(6-azaspiro[3.5]nonan-6-yl)pyrido[4,3-d]pyrimidine] has an IC50 [1] of 18000 nM, an IC50 [2] of 25900 nM and an IC50 [3] of 11.9 µM. For the same compound, the IC50 [4] was 7.78 µM, the IC50 [5] was 9.99 µM and the IC50 [6] was 17.3 µM. It also gave an IC50 [7] of 19.4 µM, an IC50 [8] of 13.6 µM and an IC50 [9] of 19.2 µM.

OC1CCC12CCCN(c1nc(OCC34CCCN3CCC4)nc3c(F)c(-c4cccc5cccc(F)c45)ncc13)C2 (stereo not drawn) [Example 233, 6-(8-fluoro-7-(8-fluoronaphthalen-1-yl)-2-((tetrahydro-1H-pyrrolizin-7a(5H)-yl)methoxy)pyrido[4,3-d]pyrimidin-4-yl)-6-azaspiro[3.5]nonan-1-ol] gave an IC50 [1] of 7380 nM, an IC50 [2] of 5350 nM and an IC50 [3] of 6.7 µM. The IC50 [4] was 4.64 µM, the IC50 [5] was 5.56 µM and the IC50 [6] was 2.65 µM. The IC50 [7] was 7.45 µM, the IC50 [8] was 6.15 µM and the IC50 [9] was 4.3 µM.

Fc1c(-c2cccc3cccc(F)c23)ncc2c(N3CCCC4(CC(F)C4)C3)nc(OCC34CCCN3CCC4)nc12 (stereo not drawn) [Example 234, 8-fluoro-4-(2-fluoro-6-azaspiro[3.5]nonan-6-yl)-7-(8-fluoronaphthalen-1-yl)-2-((hexahydro-1H-pyrrolizin-7a-yl)methoxy)pyrido[4,3-d]pyrimidine] gave an IC50 [1] of 1980 nM, an IC50 [2] of 2590 nM and an IC50 [3] of 2.02 µM. It also gave an IC50 [4] of 1.6 µM, an IC50 [5] of 1.85 µM and an IC50 [6] of 2.3 µM. It also gave an IC50 [7] of 1.76 µM, an IC50 [8] of 1.62 µM and an IC50 [9] of 2.64 µM.

In the case of OC1CC2(CCCN(c3nc(OCC45CCCN4CCC5)nc4c(F)c(-c5cccc6cccc(F)c56)ncc34)C2)C1 (stereo not drawn) [Example 235, 6-(8-fluoro-7-(8-fluoronaphthalen-1-yl)-2-((hexahydro-1H-pyrrolizin-7a-yl)methoxy)pyrido[4,3-d]pyrimidin-4-yl)-6-azaspiro[3.5]nonan-2-ol], the IC50 [1] is reported as 2710 nM, the IC50 [2] is reported as 3360 nM and the IC50 [3] is reported as 2.66 µM. The IC50 [4] was 1.7 µM, the IC50 [5] was 2.87 µM and the IC50 [6] was 2.15 µM. It also gave an IC50 [7] of 2.01 µM, an IC50 [8] of 1.65 µM and an IC50 [9] of 2.65 µM.

O=C1CC(CNc2nc(OCC34CCCN3CCC4)nc3c(F)c(-c4cccc5cccc(F)c45)ncc23)C(=O)N1 (stereo not drawn) [Example 236, 3-(((8-fluoro-7-(8-fluoronaphthalen-1-yl)-2-((hexahydro-1H-pyrrolizin-7a-yl)methoxy)pyrido[4,3-d]pyrimidin-4-yl)amino)methyl)pyrrolidine-2,5-dione] gave an IC50 [1] of 2460 nM, an IC50 [2] of 4440 nM and an IC50 [3] of 2.33 µM. For the same compound, the IC50 [4] was 0.623 µM, the IC50 [5] was 3.35 µM and the IC50 [6] was 3.39 µM. The IC50 [7] was 0.897 µM, the IC50 [8] was 2.04 µM and the IC50 [9] was 3.5 µM.

CNS(=O)(=O)C1CCCN(c2nc(OCC34CCCN3CCC4)nc3c(F)c(-c4cccc5cccc(F)c45)ncc23)C1 (stereo not drawn) [Example 237, 1-(8-fluoro-7-(8-fluoronaphthalen-1-yl)-2-((hexahydro-1H-pyrrolizin-7a-yl)methoxy)pyrido[4,3-d]pyrimidin-4-yl)-N-methylpiperidine-3-sulfonamide] was tested, and the IC50 [1] was 8290 nM, the IC50 [2] was 6380 nM and the IC50 [3] was 9.56 µM. It also gave an IC50 [4] of 7.61 µM, an IC50 [5] of 9.74 µM and an IC50 [6] of 5.34 µM. For the same compound, the IC50 [7] was 8.92 µM, the IC50 [8] was 7.59 µM and the IC50 [9] was 4.36 µM.

O=S1(=O)CCCN1C1CCCN(c2nc(OCC34CCCN3CCC4)nc3c(F)c(-c4cccc5cccc(F)c45)ncc23)C1 (stereo not drawn) [Example 239, 2-(1-(8-fluoro-7-(8-fluoronaphthalen-1-yl)-2-((hexahydro-1H-pyrrolizin-7a-yl)methoxy)pyrido[4,3-d]pyrimidin-4-yl)piperidin-3-yl)isothiazolidine 1,1-dioxide] showed an IC50 [1] of 1640 nM, an IC50 [2] of 2670 nM and an IC50 [3] of 8.65 µM. The IC50 [4] was 4.93 µM, the IC50 [5] was 4.81 µM and the IC50 [6] was 1.98 µM. It also gave an IC50 [7] of 2.21 µM, an IC50 [8] of 1.61 µM and an IC50 [9] of 1.83 µM.

Compound NS(=O)(=O)NC1CCCN(c2nc(OCC34CCCN3CCC4)nc3c(F)c(-c4cccc5cccc(F)c45)ncc23)C1 (stereo not drawn) [Example 240, 8-fluoro-7-(8-fluoronaphthalen-1-yl)-2-(1,2,3,5,6,7-hexahydropyrrolizin-8-ylmethoxy)-4-[3-(sulfamoylamino)piperidin-1-yl]pyrido[4,3-d]pyrimidine] has an IC50 [1] of 350 nM, an IC50 [2] of 498 nM and an IC50 [3] of 1.14 µM. It also gave an IC50 [4] of 1.55 µM, an IC50 [5] of 0.777 µM and an IC50 [6] of 0.586 µM. For the same compound, the IC50 [7] was 0.492 µM, the IC50 [8] was 0.597 µM and the IC50 [9] was 0.478 µM.
